4 compounds from patent publication US20110257220A1, “3,11 b-cis-Dihydrotetrabenazine for the Treatment of Schizophrenia and Other Psychoses” (CAMBRIDGE LABORATORIES (IRELAND) LIMITED, priority 2005, published 2011) can be followed below.

The target in assay [1] is T1, Adrenergic α2B Receptor (Homo sapiens, UniProt P18089).
T1 construct: expressed in transfected cells; host or cells: CHO-K1 cells
T1 sequence (P18089 1-450): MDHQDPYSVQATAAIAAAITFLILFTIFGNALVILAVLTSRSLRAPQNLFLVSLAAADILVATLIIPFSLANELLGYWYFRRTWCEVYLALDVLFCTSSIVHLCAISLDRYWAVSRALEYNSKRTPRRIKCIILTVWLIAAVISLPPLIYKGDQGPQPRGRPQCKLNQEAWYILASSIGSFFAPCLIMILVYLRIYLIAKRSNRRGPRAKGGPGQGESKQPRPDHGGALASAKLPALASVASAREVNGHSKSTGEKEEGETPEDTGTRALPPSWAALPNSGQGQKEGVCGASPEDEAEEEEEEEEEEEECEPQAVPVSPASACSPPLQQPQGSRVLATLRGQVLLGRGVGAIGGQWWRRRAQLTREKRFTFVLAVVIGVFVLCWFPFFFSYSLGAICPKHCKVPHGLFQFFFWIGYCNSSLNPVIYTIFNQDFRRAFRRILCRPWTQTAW
Kind of assay: Adrenergic α2B receptor radioligand binding ([3H] Rauwolscine). The following applies: 10 μM solution; for inhibition at 10 µM: read-out: Percentage Inhibition of Specific Binding, α2B Receptor. The method, then:
(§1) The four dihydrotetrabenazine isomers A, B, C and D were subjected to specific binding assays to test their ability to bind to the receptors and transporter proteins described below. The results are set out in Table 5
(b) Adrenergic α2B Receptor:
• Reference: S. Uhlen et al., Eur. I Pharmacol., 33 (1): 93-1-1 (1998) • Source: Human recombinant CHO-K1 cells • Ligand: 2.5 nM [3H]

Assay [2] deals with T2, Dopamine D1 Receptor (Homo sapiens, UniProt P21728).
T2 construct: expressed in transfected cells; host or cells: CHO cells
T2 sequence (P21728 whole entry): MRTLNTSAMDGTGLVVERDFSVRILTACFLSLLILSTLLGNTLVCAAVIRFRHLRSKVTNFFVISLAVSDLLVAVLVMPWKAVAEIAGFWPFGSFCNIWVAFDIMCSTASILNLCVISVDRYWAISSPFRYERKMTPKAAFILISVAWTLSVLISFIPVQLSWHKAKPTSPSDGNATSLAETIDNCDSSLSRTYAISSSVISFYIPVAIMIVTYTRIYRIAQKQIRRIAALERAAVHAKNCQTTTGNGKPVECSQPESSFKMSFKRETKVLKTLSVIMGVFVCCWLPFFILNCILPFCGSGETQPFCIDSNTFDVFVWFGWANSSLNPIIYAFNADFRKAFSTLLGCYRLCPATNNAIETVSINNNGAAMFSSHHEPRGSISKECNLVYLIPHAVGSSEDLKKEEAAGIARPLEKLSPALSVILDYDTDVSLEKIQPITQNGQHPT
Kind of assay: Dopamine D1 receptor radioligand binding ([3H] SCH-23390). The following applies: 10 μM solution; for inhibition at 10 µM: read-out: Percentage Inhibition of Specific Binding, D1 Receptor. The method, then:
as §1
(c) Dopamine D1 Receptor:
• Reference: Dearry et al., Nature, 347:72-76, (1990) • Source: Human recombinant CHO cells • Ligand: 1.4 nM [3H]

Assay [3] relates to Imidazoline I2 (Central) Receptor. In words: Imidazoline I2 (central) receptor radioligand binding ([3H] Idazoxan). Also on record: species or system Wistar rat. Particulars: 10 μM solution. The method, then: as §1
(f) Imidazoline I2 (Central) Receptor:
• Reference: Brown et al., Brit. I Pharmacol., 99:803-809, (1990) • Source: Wistar rat cerebral cortex • Ligand: 2 nM [3H] Idazoxan • Vehicle: 1% DMSO • Incubation time/Temp: 30 minutes @ 25° C. • Incubation buffer: 50 mM Tris-HCl, 0.5 mM EDTA, pH 7.4 at 25° C. • Non Specific ligand: 1 μM Idazoxan • Kd: 4 nM • Bmax: 0.14 pmole/mg protein • Specific binding: 85% • Quantitation method: Radioligand binding • Significance criteria: ≧50% of maximum stimulation or inhibition

Assay [4] has as its target T3, Sigma σ1 Receptor (Homo sapiens, UniProt Q99720).
T3 construct: endogenous in cells; host or cells: Jurkat cells
In words: Sigma σ1 receptor radioligand binding ([3H] Haloperidol). Particulars: 10 μM solution; for inhibition at 10 µM: read-out: Percentage Inhibition of Specific Binding, σ1 Receptor. The method, then:
as §1
• Reference: Ganaphthy et al., Pharmacol. Exp. Ther., 289:251-260, (1999) • Source: Human jurkat cells • Ligand: 8 nM [3H]

Assay [5] concerns the target T4, Sigma σ2 Receptor (Rattus norvegicus, UniProt Q5U3Y7).
T4 construct: from tissue; host or cells: Wistar rat brain
T4 sequence (Q5U3Y7 1-176): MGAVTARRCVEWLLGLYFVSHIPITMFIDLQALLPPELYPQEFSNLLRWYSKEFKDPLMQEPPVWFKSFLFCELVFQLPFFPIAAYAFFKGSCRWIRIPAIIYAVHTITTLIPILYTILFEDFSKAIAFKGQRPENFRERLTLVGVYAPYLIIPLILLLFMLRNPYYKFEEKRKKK
Kind of assay: Sigma σ2 receptor radioligand binding ([3H] Ifenprodil). Also on record: species or system Wistar rat. The following applies: 10 μM solution; for inhibition at 10 µM: read-out: Percentage Inhibition of Specific Binding, σ2 Receptor. The method, then: as §1
• Reference: Hashimoto et al., Eur. J. Pharmacol., 236:159-163, (1993) • Source: Wistar rat brain • Ligand: 3 nM [3H]

Assay [6] has as its target T5, Dopamine Transporter (DAT) (Homo sapiens, UniProt Q01959).
T5 construct: expressed in transfected cells; host or cells: CHO cells
Kind of assay: Dopamine transporter radioligand binding ([125I] RTI-55). The following applies: 10 μM solution; for inhibition at 10 µM: read-out: Percentage Inhibition of Specific Binding, DAT. The method, then:
as §1
(j) Dopamine Transporter (DAT):
• Reference: Giros et al., Trends Pharmacol. Sci., 14, 43-49 (1993) Gu et al., J. Biol. Chem., 269(10):7124-7130 (1994) • Source: Human recombinant CHO cells • Ligand: 0.15 nM [^125I]

Assay [7] addresses T6, α2c Adrenergic receptor (Homo sapiens, UniProt P18825).
T6 construct: expressed in transfected cells; host or cells: insect Sf9 cells
T6 sequence (P18825 1-462): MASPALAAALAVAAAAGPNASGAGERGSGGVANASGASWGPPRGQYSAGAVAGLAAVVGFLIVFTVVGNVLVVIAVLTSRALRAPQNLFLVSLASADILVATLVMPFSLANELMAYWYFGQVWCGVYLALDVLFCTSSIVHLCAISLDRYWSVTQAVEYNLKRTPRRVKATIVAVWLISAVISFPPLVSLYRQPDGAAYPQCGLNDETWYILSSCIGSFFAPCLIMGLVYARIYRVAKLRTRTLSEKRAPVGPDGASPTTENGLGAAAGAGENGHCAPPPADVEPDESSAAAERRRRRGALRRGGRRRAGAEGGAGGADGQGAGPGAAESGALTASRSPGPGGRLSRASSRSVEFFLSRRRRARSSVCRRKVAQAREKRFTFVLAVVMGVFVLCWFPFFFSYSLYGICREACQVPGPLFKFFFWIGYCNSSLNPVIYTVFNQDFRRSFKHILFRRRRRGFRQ
In words: α2c Adrenergic receptor radioligand binding ([3H] MK-912). Particulars: 10 μM solution; for inhibition at 10 µM: read-out: Percentage Inhibition of Specific Binding, α2c receptor. The method, then:
as §1
(k) α2, Adrenergic Receptor
α2c Adrenergic receptor binding activity was determined using the method of Uhlen et al., J. Pharmacol. Exp. Ther. (1994), 271:1558-1565, and the following conditions: • Source: Human recombinant insect Sf9 cells • Ligand: 1 nM [^3H]

Assay [8] concerns the target T7, Serotonin (5-hydroxytryptamine) 5-HT2b Receptor (Homo sapiens, UniProt P41595).
T7 construct: expressed in transfected cells; host or cells: CHO-K1 cells
Kind of assay: 5-HT2b receptor radioligand binding ([3H] LSD). The following applies: 10 μM solution; for inhibition at 10 µM: read-out: Percentage Inhibition of Specific Binding, 5-HT2b receptor.

The target in assay [9] is T8, Serotonin (5-hydroxytryptamine) 5-HT6 Receptor (Homo sapiens, UniProt P50406).
T8 construct: expressed in transfected cells; host or cells: HeLa cells
T8 sequence (P50406 whole entry): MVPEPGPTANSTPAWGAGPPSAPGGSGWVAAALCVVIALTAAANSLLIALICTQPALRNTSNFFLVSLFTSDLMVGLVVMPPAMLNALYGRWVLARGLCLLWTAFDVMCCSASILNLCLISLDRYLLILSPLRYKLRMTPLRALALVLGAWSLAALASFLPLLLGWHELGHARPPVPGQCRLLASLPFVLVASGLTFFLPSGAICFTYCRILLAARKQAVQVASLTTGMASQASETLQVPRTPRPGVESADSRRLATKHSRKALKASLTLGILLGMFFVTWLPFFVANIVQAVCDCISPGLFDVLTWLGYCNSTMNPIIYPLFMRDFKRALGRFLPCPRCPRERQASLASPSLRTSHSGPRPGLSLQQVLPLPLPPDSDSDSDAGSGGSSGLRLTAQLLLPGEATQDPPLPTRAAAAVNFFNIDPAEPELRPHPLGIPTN
Kind of assay: 5-HT6 receptor radioligand binding ([3H] LSD). The following applies: 10 μM solution; for inhibition at 10 µM: read-out: Percentage Inhibition of Specific Binding, 5-HT6 receptor.
Description: as §1

T5 sequence (Q01959 whole entry): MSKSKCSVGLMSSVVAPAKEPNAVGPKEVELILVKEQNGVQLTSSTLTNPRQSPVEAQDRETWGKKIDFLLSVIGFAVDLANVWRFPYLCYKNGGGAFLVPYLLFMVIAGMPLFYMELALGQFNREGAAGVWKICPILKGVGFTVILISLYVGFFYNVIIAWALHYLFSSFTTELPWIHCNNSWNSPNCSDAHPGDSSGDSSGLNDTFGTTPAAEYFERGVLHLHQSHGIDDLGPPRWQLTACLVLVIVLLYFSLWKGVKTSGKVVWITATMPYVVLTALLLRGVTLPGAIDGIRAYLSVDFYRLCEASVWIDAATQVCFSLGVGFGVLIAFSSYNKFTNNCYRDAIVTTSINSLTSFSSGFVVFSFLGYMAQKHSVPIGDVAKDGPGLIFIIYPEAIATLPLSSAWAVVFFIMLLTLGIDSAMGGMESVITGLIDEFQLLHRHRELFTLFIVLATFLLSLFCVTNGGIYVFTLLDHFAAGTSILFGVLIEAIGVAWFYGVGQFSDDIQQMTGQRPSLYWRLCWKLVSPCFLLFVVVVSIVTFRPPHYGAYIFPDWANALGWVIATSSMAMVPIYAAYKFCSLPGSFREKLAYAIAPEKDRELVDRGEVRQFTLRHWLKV
T7 sequence (P41595 whole entry): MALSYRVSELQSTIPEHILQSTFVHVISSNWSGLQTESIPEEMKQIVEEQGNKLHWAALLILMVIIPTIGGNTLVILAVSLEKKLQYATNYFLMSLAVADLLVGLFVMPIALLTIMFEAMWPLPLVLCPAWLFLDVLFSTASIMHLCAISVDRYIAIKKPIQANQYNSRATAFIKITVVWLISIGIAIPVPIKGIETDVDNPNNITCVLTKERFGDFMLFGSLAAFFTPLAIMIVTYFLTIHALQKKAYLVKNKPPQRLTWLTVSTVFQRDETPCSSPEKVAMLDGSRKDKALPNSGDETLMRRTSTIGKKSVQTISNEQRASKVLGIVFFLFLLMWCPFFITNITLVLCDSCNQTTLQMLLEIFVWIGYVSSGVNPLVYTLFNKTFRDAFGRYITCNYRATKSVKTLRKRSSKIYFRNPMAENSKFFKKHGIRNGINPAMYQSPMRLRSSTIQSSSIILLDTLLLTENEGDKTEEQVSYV
T3 sequence (Q99720 whole entry): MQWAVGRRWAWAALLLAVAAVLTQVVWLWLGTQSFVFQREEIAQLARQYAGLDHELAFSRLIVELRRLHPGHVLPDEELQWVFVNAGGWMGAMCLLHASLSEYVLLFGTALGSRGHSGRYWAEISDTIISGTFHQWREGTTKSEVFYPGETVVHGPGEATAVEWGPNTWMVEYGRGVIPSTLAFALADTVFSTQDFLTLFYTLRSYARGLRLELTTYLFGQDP

As a reminder, the inhibition is the drop in the measured response relative to a control, in per cent. Consider `COc1cc2c(cc1OC)C1CC(O)C(CC(C)C)CN1CC2` (single isomer, unassigned) [Isomer C], for which the inhibition at 10 µM in [1] is -7%; in assay [2], 6%; in [4] it was 59%; in assay [5], 61%; in assay [6] it was -2%; in [7], 3%. In addition, the values for the inhibition at 10 µM in assay [8] and in assay [9] were 14% and 10%, respectively. Besides, the “Percentage Inhibition of Specific Binding, I2 Receptor” value (“Percentage Inhibition … I2 Receptor” below) in assay [3] was 0%.

Take `COc1cc2c(cc1OC)[C@H]1C[C@H](O)[C@@H](CC(C)C)CN1CC2` (single isomer, unassigned) [Isomer B]: the inhibition at 10 µM in assay [1] was 14%; in assay [2] it was 1%; in [4], 82%; in assay [5], 64%; in [6], 4%; in assay [7], -6%. The inhibition at 10 µM in assay [8] and in assay [9] was 10% each time. Further, in assay [3], the “Percentage Inhibition … I2 Receptor” value was 8%.

As for `COc1cc2c(cc1OC)[C@@H]1C[C@@H](O)[C@H](CC(C)C)CN1CC2` (single isomer, unassigned) [Isomer A], the inhibition at 10 µM stood at 44% in assay [1]; 78% in assay [2]; 48% in assay [4]; 64% in assay [5]; 3% in assay [6]; 56% in assay [7]. The inhibition at 10 µM in [8] came out at 74%; in assay [9], 51%. The “Percentage Inhibition … I2 Receptor” value in [3] came out at 74%.

For `COc1cc2c(cc1OC)[C@H]1C[C@@H](O)[C@H](CC(C)C)CN1CC2` (single isomer, unassigned; isomer d) [Isomer D], the “Percentage Inhibition of Specific Binding, α2B Receptor” value in assay [1] stood at 50%. Besides, the “Percentage Inhibition of Specific Binding, D1 Receptor” value in assay [2] worked out at 38%. For the same compound, the “Percentage Inhibition … I2 Receptor” value in assay [3] came out at 55%. Moreover, the “Percentage Inhibition of Specific Binding, σ1 Receptor” value in [4] came to 82%. Besides, in [5], the “Percentage Inhibition of Specific Binding, σ2 Receptor” value is 69%. The “Percentage Inhibition of Specific Binding, DAT” value in assay [6] is listed as 2%. Also, in [7], the “Percentage Inhibition of Specific Binding, α2c receptor” value came out at 74%. In addition, the “Percentage Inhibition of Specific Binding, 5-HT2b receptor” value in assay [8] is 43%. Moreover, the “Percentage Inhibition of Specific Binding, 5-HT6 receptor” value in [9] came to 41%.
